Results taken from the supplement of paper PMC10878532, “Sperm Toolbox—A selection of small molecules to study human spermatozoa” (PLOS ONE, 2024).
Structures can show the parent of a compound that is named as a salt.

How the values were obtained:
[1] = system: human spermatozoa; experiment: progressively motile sperm, percent change vs DMSO (capacitating); higher = more of the measured sperm population than DMSO, for viability, fewer PI-positive (dead) cells than DMSO; settings: incubation time: 30min incubation
[2] = system: HepG2; experiment: HepG2 toxicity (resazurin), effect normalised to DMSO (DMSO = 0); higher = more features changed / larger toxic effect; settings: incubation time: 70h incubation
[3] = system: HeLa; experiment: Cell Painting percent induction (share of features beyond 2 z-scores vs DMSO); higher = more features changed / larger toxic effect; extreme values may be limits of the assay; settings: incubation time: 24h incubation
[4] = system: human spermatozoa; experiment: hyperactivated motile sperm, percent change vs DMSO (capacitating); higher = more of the measured sperm population than DMSO, for viability, fewer PI-positive (dead) cells than DMSO; settings: incubation time: 30min incubation
[5] = system: HeLa; experiment: HeLa toxicity: nuclei-count effect normalised to DMSO (DMSO = 0); higher = more features changed / larger toxic effect; settings: incubation time: 24h incubation
[6] = system: human spermatozoa; experiment: change in acrosome-reacted (PNA+) sperm vs DMSO, no agonist (capacitating); higher = more of the measured sperm population than DMSO, for viability, fewer PI-positive (dead) cells than DMSO; settings: incubation time: 3h
[7] = system: human spermatozoa; experiment: acrosome-reacted (PNA+) sperm after agonist cocktail, percent change vs DMSO (capacitating); higher = more of the measured sperm population than DMSO, for viability, fewer PI-positive (dead) cells than DMSO; settings: incubation time: 3h, capacitating + agonist cocktail 1h
[8] = system: human spermatozoa; experiment: total motile sperm, percent change vs DMSO (non-capacitating); higher = more of the measured sperm population than DMSO, for viability, fewer PI-positive (dead) cells than DMSO
[9] = system: human spermatozoa; experiment: progressively motile sperm, percent change vs DMSO (non-capacitating); higher = more of the measured sperm population than DMSO, for viability, fewer PI-positive (dead) cells than DMSO; extreme values may be limits of the assay
[10] = system: human spermatozoa; experiment: viability fold change, 1 - (PI-positive fraction / DMSO median); higher = more of the measured sperm population than DMSO, for viability, fewer PI-positive (dead) cells than DMSO; settings: incubation time: 3h, non-capacitating
[11] = incubation time: 10min incubation, 9.99 µM
[12] = incubation time: 10min incubation, 29.9 µM
[13] = incubation time: 3h incubation, 9.99 µM
[14] = incubation time: 3h incubation, 29.9 µM
[15] = incubation time: 6h incubation, 9.99 µM
[16] = incubation time: 6h incubation, 29.9 µM
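For progressively motile sperm, percent change vs DMSO (non-capacitating) in this document: pooled live human sperm from at least 3 donors, tracked by automated microscopy in 0.5 s time-lapse movies, compounds at 10 and 30 µM, versus median of 16 DMSO wells per plate.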
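For total motile sperm, percent change vs DMSO (non-capacitating) in this document: sperm pooled from at least 3 donors, tracked in 0.5 s time-lapse movies by automated microscopy after 10 min, 3 h or 6 h with compound at 10 or 30 µM.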

Compound | progressively motile sperm ([1]; 9.99 µM) [%] | progressively motile sperm ([1]; 29.9 µM) [%] | HepG2 toxicity ([2]; 10 µM) [%] | HepG2 toxicity ([2]; 30 µM) [%] | Cell Painting percent induction ([3]; 9.99 µM) [%] | Cell Painting percent induction ([3]; 29.9 µM) [%] | hyperactivated motile sperm ([4]; 9.99 µM) [%] | hyperactivated motile sperm ([4]; 29.9 µM) [%] | HeLa toxicity: nuclei-count effect normalised ([5]; 9.99 µM) [%] | HeLa toxicity: nuclei-count effect normalised ([5]; 29.9 µM) [%] | change in acrosome-reacted ([6]; 9.99 µM) [%] | change in acrosome-reacted ([6]; 29.9 µM) [%] | acrosome-reacted ([7]; 9.99 µM) [%] | acrosome-reacted ([7]; 29.9 µM) [%] | total motile sperm [8, 11] [%] | total motile sperm [8, 12] [%] | total motile sperm [8, 13] [%] | total motile sperm [8, 14] [%] | total motile sperm [8, 15] [%] | total motile sperm [8, 16] [%] | progressively motile sperm [9, 11] [%] | progressively motile sperm [9, 12] [%] | progressively motile sperm [9, 13] [%] | progressively motile sperm [9, 14] [%] | progressively motile sperm [9, 15] [%] | progressively motile sperm [9, 16] [%] | viability fold change ([10]; 9.99 µM) | viability fold change ([10]; 29.9 µM)
CC(C)[C@H]1c2ccc(F)cc2CC[C@@]1(CCN(C)CCCc1nc2ccccc2[nH]1)OC(=O)C1CC1 [NNC 55-0396 dihydrochloride] | 4.2 | -98.6 | 102 | 103 | 27.1 | 14.2 | -62 | -82.2 | 97.3 | 95.5 | 4.14 | 29.2 | 52.4 | 51.1 | 0.104 | -33.4 | -15 | -93.6 | -24.8 | -93 | 5.26 | -62.2 | 16.3 | -100 | 7.86 | -100 | -1.31 | -2.3
Nc1ncnc2c1c(-c1cccc(OCc3ccccc3)c1)cn2[C@H]1C[C@@H](CN2CCC2)C1 [NVP-AEW541] | 1.09 | 5.49 | 82.9 | 103 | 8.93 | 57.6 | 16.7 | -13.9 | 27.7 | 99.5 | 0.03 | 0.662 | 10.6 | 31.6 | -0.708 | -2.42 | 2.29 | -8.07 | -0.444 | -10.1 | 6.28 | 11.5 | 31.9 | 34.1 | 48.5 | 31.5 | -0.326 | -0.581
N=C(N)Nc1ccc(C(=O)Oc2ccc3cc(C(=N)N)ccc3c2)cc1 [Nafamostat] | 3.69 | 9.5 | -7.68 | 4.06 | 0 | 0 | 5.36 | 1.98 | 2.4 | 1.27 | 0.86 | 1.56 | 5.51 | 15.9 | -0.692 | 2.17 | -4.33 | -1.82 | -5.56 | -0.0709 | -2.19 | 0.269 | -19.4 | -27.7 | -23.3 | -29.6 | -0.884 | -0.901
O=C(Nc1ccc([N+](=O)[O-])cc1Cl)c1cc(Cl)ccc1O [Niclosamide] | -1.8 | -5.95 | -3.07 | 1.35 | 8.47 | 7.82 | -59.6 | -70.1 | 31.1 | 32.3 | 1.03 | 1.07 | 7.25 | 4.65 | -2.96 | -1.25 | -8.32 | -3.27 | -6.27 | -2.49 | -28.1 | -27.6 | -26.2 | -30.1 | -18.2 | -26.8 | 0.501 | 0.431
O=C(O)c1cccnc1Nc1cccc(C(F)(F)F)c1 [Niflumic acid] | 5.54 | 7.87 | 4.41 | -6.15 | 0 | 0 | 19.3 | -6.47 | 2.94 | -2.27 | 0.714 | 0.944 | 4.85 | -0.457 | 2.12 | 1.32 | -5.94 | -1.61 | -3.08 | -6.87 | 9.44 | 5.93 | -5.45 | 4.68 | 7.86 | -5.16 | -1.06 | -0.652
COC(=O)[C@]1(C)CC[C@]2(C)CC[C@]3(C)C4=CC=C5C(=CC(=O)C(O)=C5C)[C@]4(C)CC[C@@]3(C)[C@@H]2C1 [Pristimerin] | -74.5 | -96.6 | 103 | 103 | 46.9 | 38.9 | -72.5 | -73.6 | 98.7 | 98.7 | 3.63 | 6.18 | -52.1 | -57.5 | -50.2 | -83.1 | -90.8 | -88.7 | -92.1 | -85.4 | -86.8 | -99.9 | -100 | -100 | -100 | -99.9 | -0.933 | -1.2
CCOCc1nc2c(N)nc3ccccc3c2n1CC(C)(C)O [Resiquimod] | -29.5 | -59.7 | 12.3 | -1.68 | 0 | 0 | -81.8 | -84.5 | 1.14 | 0.735 | 0.989 | 0.739 | 2.21 | -0.339 | -0.764 | -12.1 | -11.9 | -23.9 | -12.4 | -21.3 | -38.4 | -75.7 | -66.1 | -88 | -66.2 | -83.9 | -0.843 | -0.207
[O-][S+](c1ccccc1)c1ccc2nnnn2n1 (centres undefined) [Ro 106-9920] | -9.75 | -78.3 | 103 | 103 | 0.684 | 42.4 | -3.35 | -67.1 | 43.7 | 96.9 | 8.05 | 18.3 | 149 | 142 | -8.15 | -30.9 | -92.3 | -89.9 | -92.2 | -89.8 | -34.9 | -68.2 | -100 | -99.9 | -100 | -100 | -0.184 | -0.13
